# Measured values from ChEMBL document CHEMBL1156685, “Synthesis and structure-activity relationships of N-6 substituted analogues of 9-hydroxy-4-phenylpyrrolo[3,4-c]carbazole-1,3(2H,6H)-diones as inhibitors of Wee1 and Chk1 checkpoint kinases” (Eur J Med Chem, 2008).
# How the values were obtained:
# [1] = molecular target: Proto-oncogene tyrosine-protein kinase Src (Homo sapiens, UniProt P12931)
# physchem = settings: buffer
# Description: Aqueous solubility of the compound
# [2] = molecular target: Cyclin-dependent kinase 1/cyclin B1 (Homo sapiens, UniProt P06493); type: cell-based, HT-29
# Description: Inhibition of Cdc2/cyclin B assessed as inhibition of histone H1 phosphorylation in human HT29 cells
# Wee1-like protein kinase = Wee1-like protein kinase (Homo sapiens, UniProt P30291)
# Description: Inhibition of human Wee1 assessed as polyornithine-tyrosine copolymer phosphorylation
# [3] = molecular target: Cyclin-dependent kinase 1 (Homo sapiens, UniProt P06493); type: cell-based; settings: ht-29
# Cyclin-dependent kinase 1, sequence (P06493 whole entry): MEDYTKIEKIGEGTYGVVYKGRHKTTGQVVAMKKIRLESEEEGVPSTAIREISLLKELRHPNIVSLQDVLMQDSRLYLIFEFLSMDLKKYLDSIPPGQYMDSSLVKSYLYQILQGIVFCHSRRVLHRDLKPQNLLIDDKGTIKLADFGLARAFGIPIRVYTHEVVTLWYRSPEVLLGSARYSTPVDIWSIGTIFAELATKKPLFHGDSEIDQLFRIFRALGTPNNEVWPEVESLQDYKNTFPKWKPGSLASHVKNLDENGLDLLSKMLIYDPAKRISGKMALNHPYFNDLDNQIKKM
# Description: Inhibition of Cdc2 Tyr15 phosphorylation in human HT29 cells by Western blot
# Proto-oncogene tyrosine-protein kinase Src, sequence (P12931 2-536 limits assumed): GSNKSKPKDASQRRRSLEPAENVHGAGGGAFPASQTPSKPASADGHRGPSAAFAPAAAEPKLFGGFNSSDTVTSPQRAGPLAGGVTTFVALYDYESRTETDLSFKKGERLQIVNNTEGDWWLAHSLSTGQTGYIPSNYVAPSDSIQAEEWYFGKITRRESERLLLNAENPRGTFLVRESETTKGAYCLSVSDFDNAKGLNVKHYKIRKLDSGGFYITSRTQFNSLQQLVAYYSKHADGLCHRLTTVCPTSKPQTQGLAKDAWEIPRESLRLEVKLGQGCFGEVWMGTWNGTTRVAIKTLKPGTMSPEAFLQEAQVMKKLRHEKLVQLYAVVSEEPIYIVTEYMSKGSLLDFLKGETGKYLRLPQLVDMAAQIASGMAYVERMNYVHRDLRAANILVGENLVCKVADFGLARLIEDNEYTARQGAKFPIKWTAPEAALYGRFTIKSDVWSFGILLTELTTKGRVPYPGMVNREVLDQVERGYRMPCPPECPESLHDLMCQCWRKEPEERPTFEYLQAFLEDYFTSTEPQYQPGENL
# Cyclin-dependent kinase 1/cyclin B1, sequence (P06493 whole entry): as the sequence (P06493 whole entry) above
# Cyclin-dependent kinase 1/cyclin B1, sequence (P14635 whole entry, further chain): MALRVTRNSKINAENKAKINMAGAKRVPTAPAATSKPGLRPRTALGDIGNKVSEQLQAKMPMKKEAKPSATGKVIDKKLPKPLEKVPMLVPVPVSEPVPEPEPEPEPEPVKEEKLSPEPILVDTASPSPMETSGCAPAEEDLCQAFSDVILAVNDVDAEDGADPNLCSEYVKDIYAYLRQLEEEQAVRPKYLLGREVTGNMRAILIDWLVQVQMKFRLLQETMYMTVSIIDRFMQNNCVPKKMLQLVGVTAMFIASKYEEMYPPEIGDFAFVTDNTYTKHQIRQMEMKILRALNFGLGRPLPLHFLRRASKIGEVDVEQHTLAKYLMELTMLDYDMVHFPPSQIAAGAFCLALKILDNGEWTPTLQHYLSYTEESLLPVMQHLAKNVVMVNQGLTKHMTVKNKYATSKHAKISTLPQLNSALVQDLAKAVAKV
# Wee1-like protein kinase, sequence (P30291 whole entry): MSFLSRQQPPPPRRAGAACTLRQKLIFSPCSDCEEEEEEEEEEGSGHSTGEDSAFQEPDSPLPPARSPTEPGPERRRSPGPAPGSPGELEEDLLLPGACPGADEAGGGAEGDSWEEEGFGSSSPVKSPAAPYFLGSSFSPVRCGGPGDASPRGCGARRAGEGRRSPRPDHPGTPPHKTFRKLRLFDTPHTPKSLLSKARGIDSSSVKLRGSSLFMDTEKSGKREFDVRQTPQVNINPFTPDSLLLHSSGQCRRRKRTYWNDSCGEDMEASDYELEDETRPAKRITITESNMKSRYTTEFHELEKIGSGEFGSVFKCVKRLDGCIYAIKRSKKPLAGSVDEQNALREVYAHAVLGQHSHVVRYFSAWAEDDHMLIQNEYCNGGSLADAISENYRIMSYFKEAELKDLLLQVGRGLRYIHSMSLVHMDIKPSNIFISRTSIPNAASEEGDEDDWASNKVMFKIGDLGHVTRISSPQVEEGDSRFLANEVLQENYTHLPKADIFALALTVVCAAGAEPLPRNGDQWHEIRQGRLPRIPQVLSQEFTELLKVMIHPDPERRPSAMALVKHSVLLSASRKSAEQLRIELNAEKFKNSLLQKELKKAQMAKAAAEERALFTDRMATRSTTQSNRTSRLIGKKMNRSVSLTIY
SMILES,IC50 [1],solubility (physchem),IC50 [2],IC50 (Wee1-like protein kinase),IC50 [3]
O=C1NC(=O)c2c1c(-c1ccccc1Cl)cc1[nH]c3ccc(O)cc3c21,> 50 µM,,,,
O=C1NC(=O)c2c1c(-c1ccccc1Cl)cc1c2c2cc(O)ccc2n1CCCO,,< 3 µg/mL,0.65 µM,,
CN1CCN(CCCn2c3ccc(O)cc3c3c4c(c(-c5c(Cl)cccc5Cl)cc32)C(=O)NC4=O)CC1,,,,0.062 µM,
O=C1NC(=O)c2c1c(-c1ccccc1)cc1c2c2cc(O)ccc2n1CCCNc1ccccc1,,,,0.093 µM,
CNCCCn1c2ccc(O)cc2c2c3c(c(-c4c(Cl)cccc4Cl)cc21)C(=O)NC3=O,,7.3 µg/mL,,0.11 µM,
O=C1NC(=O)c2c1c(-c1c(Cl)cccc1Cl)cc1c2c2cc(O)ccc2n1CCCn1ccnc1,,3.2 µg/mL,,0.059 µM,
CN1CCN(CCCn2c3ccc(O)cc3c3c4c(c(-c5ccccc5)cc32)C(=O)NC4=O)CC1,17 µM,28 µg/mL,,0.3 µM,
CN(C)CCCn1c2ccc(O)cc2c2c3c(c(-c4ccccc4Cl)cc21)C(=O)NC3=O,,,,0.1 µM,
CNCCCn1c2ccc(O)cc2c2c3c(c(-c4ccccc4)cc21)C(=O)NC3=O,,,,0.28 µM,
O=C(O)CCn1c2ccc(O)cc2c2c3c(c(-c4ccccc4Cl)cc21)C(=O)NC3=O,,> 60 µg/mL,,,
O=C1NC(=O)c2c1c(-c1ccccc1Cl)cc1c2c2cc(O)ccc2n1CCCNc1ccccc1,,,,0.074 µM,
O=C(O)CCn1c2ccc(O)cc2c2c3c(c(-c4c(Cl)cccc4Cl)cc21)C(=O)NC3=O,,33 µg/mL,,0.39 µM,
CS(=O)(=O)NC(=O)CCn1c2ccc(O)cc2c2c3c(c(-c4ccccc4Cl)cc21)C(=O)NC3=O,,> 60 µg/mL,> 3.4 µM,0.012 µM,0.25 µM
CN(C)CCNC(=O)CCn1c2ccc(O)cc2c2c3c(c(-c4c(Cl)cccc4Cl)cc21)C(=O)NC3=O,,> 60 µg/mL,,0.014 µM,
O=C1NC(=O)c2c1c(-c1c(Cl)cccc1Cl)cc1c2c2cc(O)ccc2n1CCCNc1ccccc1,,,,0.067 µM,
CN(C)CCNC(=O)CCn1c2ccc(O)cc2c2c3c(c(-c4ccccc4Cl)cc21)C(=O)NC3=O,,> 60 µg/mL,1.3 µM,0.035 µM,< 0.25 µM
O=C(O)CCn1c2ccc(O)cc2c2c3c(c(-c4ccccc4)cc21)C(=O)NC3=O,13 µM,> 60 µg/mL,,,
NC(=O)CCn1c2ccc(O)cc2c2c3c(c(-c4c(Cl)cccc4Cl)cc21)C(=O)NC3=O,,< 3 µg/mL,,0.33 µM,
O=C1NC(=O)c2c1c(-c1ccccc1)cc1c2c2cc(O)ccc2n1CCCO,,< 3 µg/mL,,0.2 µM,
O=C1NC(=O)c2c1c(-c1ccccc1)cc1c2c2cc(O)ccc2n1CCO,,,,0.025 µM,

SMILES,IC50 [1],solubility (physchem),IC50 [2],IC50 (Wee1-like protein kinase),IC50 [3]
O=C1NC(=O)c2c1c(-c1c(Cl)cccc1Cl)cc1c2c2cc(O)ccc2n1CCO,,< 3 µg/mL,,,
O=C1NC(=O)c2c1c(-c1c(Cl)cccc1Cl)cc1c2c2cc(O)ccc2n1CCCO,,< 3 µg/mL,,0.007 µM,
O=C1NC(=O)c2c1c(-c1ccccc1Cl)cc1c2c2cc(O)ccc2n1CCCc1nnn[nH]1,,> 60 µg/mL,> 3.4 µM,0.016 µM,> 10 µM
O=C1NC(=O)c2c1c(-c1ccccc1Cl)cc1c2c2cc(O)ccc2n1CC[S+]([O-])c1nnc[nH]1 (configuration not stated),,18 µg/mL,,0.009 µM,
O=C1NC(=O)c2c1c(-c1ccccc1Cl)cc1c2c2cc(O)ccc2n1CCS(=O)(=O)c1nnc[nH]1,,16 µg/mL,,0.019 µM,
NC(=O)CCn1c2ccc(O)cc2c2c3c(c(-c4ccccc4Cl)cc21)C(=O)NC3=O,,,> 3.4 µM,0.006 µM,> 10 µM
O=C1NC(=O)c2c1c(-c1ccccc1Cl)cc1c2c2cc(O)ccc2n1CCCn1ccnc1,,,,0.054 µM,
O=C1NC(=O)c2c1c(-c1c(Cl)cccc1Cl)cc1c2c2cc(O)ccc2n1CCCN1CCOCC1,,,,0.064 µM,
CN(C)CCn1c2ccc(O)cc2c2c3c(c(-c4ccccc4Cl)cc21)C(=O)NC3=O,,8.5 µg/mL,,0.096 µM,
CN(C)CCn1c2ccc(O)cc2c2c3c(c(-c4c(Cl)cccc4Cl)cc21)C(=O)NC3=O,,7.4 µg/mL,,0.17 µM,
COC(=O)CCn1c2ccc(O)cc2c2c3c(c(-c4ccccc4Cl)cc21)C(=O)NC3=O,,< 3 µg/mL,,0.03 µM,
COCCCn1c2ccc(O)cc2c2c3c(c(-c4ccccc4Cl)cc21)C(=O)NC3=O,,< 3 µg/mL,,0.027 µM,
O=C1NC(=O)c2c1c(-c1ccccc1)cc1c2c2cc(O)ccc2n1CCn1ccnc1,27 µM,,,,
O=C1NC(=O)c2c1c(-c1c(Cl)cccc1Cl)cc1c2c2cc(O)ccc2n1CCn1ccnc1,,< 3 µg/mL,,0.12 µM,
CN1CCN(CCCn2c3ccc(O)cc3c3c4c(c(-c5ccccc5Cl)cc32)C(=O)NC4=O)CC1,,,,0.082 µM,
CN(C)CCCn1c2ccc(O)cc2c2c3c(c(-c4ccccc4)cc21)C(=O)NC3=O,5.6 µM,,,0.36 µM,
CN(C)CCCn1c2ccc(O)cc2c2c3c(c(-c4c(Cl)cccc4Cl)cc21)C(=O)NC3=O,,,,0.14 µM,
CNCCCn1c2ccc(O)cc2c2c3c(c(-c4ccccc4Cl)cc21)C(=O)NC3=O,,5.2 µg/mL,0.71 µM,0.069 µM,< 0.25 µM
O=C1NC(=O)c2c1c(-c1ccccc1)cc1c2c2cc(O)ccc2n1CCCN1CCOCC1,46 µM,< 3 µg/mL,,0.29 µM,
N#CCCn1c2ccc(O)cc2c2c3c(c(-c4ccccc4Cl)cc21)C(=O)NC3=O,,< 3 µg/mL,> 3.4 µM,0.015 µM,< 0.25 µM

SMILES,IC50 [1],solubility (physchem),IC50 [2],IC50 (Wee1-like protein kinase),IC50 [3]
O=C1NC(=O)c2c1c(-c1ccccc1Cl)cc1c2c2cc(O)ccc2n1CCO,,< 3 µg/mL,,0.045 µM,
O=C(O)CCCn1c2ccc(O)cc2c2c3c(c(-c4ccccc4Cl)cc21)C(=O)NC3=O,,,> 3.4 µM,0.013 µM,> 10 µM
NC(=O)CCn1c2ccc(O)cc2c2c3c(c(-c4ccccc4)cc21)C(=O)NC3=O,,< 3 µg/mL,,0.021 µM,
COc1ccccc1-c1cc2c(c3c1C(=O)NC3=O)c1cc(O)ccc1n2CCCO,,< 3 µg/mL,,,
O=C1NC(=O)c2c1c(-c1ccccc1Cl)cc1c2c2cc(O)ccc2n1CCc1nnn[nH]1,,> 60 µg/mL,> 3.4 µM,0.021 µM,2.5 µM
O=C1NC(=O)c2c1c(-c1ccccc1Cl)cc1c2c2cc(O)ccc2n1CCSc1nnc[nH]1,,3 µg/mL,,0.024 µM,
O=C(CCn1c2ccc(O)cc2c2c3c(c(-c4ccccc4Cl)cc21)C(=O)NC3=O)NS(=O)(=O)c1ccccc1,,47 µg/mL,,0.007 µM,
CNCC(O)Cn1c2ccc(O)cc2c2c3c(c(-c4ccccc4Cl)cc21)C(=O)NC3=O (configuration not stated),,,,0.057 µM,
CN(C)CC(O)Cn1c2ccc(O)cc2c2c3c(c(-c4ccccc4Cl)cc21)C(=O)NC3=O (configuration not stated),,> 60 µg/mL,> 3.4 µM,0.058 µM,0.25 µM
CN(C)CCNC(=O)CCn1c2ccc(O)cc2c2c3c(c(-c4ccccc4)cc21)C(=O)NC3=O,,> 60 µg/mL,,,
O=C1NC(=O)c2c1c(-c1ccccc1)cc1c2c2cc(O)ccc2n1CCCn1ccnc1,,< 3 µg/mL,,0.11 µM,
CN(C)CCn1c2ccc(O)cc2c2c3c(c(-c4ccccc4)cc21)C(=O)NC3=O,31 µM,18 µg/mL,,0.2 µM,
O=C1NC(=O)c2c1c(-c1c(Cl)cccc1Cl)cc1c2c2cc(O)ccc2n1CCN1CCOCC1,,,,0.11 µM,
N#CCCCn1c2ccc(O)cc2c2c3c(c(-c4ccccc4Cl)cc21)C(=O)NC3=O,,,,0.033 µM,
O=C1NC(=O)c2c1c(-c1ccccc1Cl)cc1c2c2cc(O)ccc2n1CC(O)CO (configuration not stated),2.5 µM,12 µg/mL,,0.023 µM,
O=C1NC(=O)c2c1c(-c1ccccc1)cc1c2c2cc(O)ccc2n1CCN1CCOCC1,,14 µg/mL,,0.14 µM,
O=C1NC(=O)c2c1c(-c1ccccc1Cl)cc1c2c2cc(O)ccc2n1CCN1CCOCC1,,< 3 µg/mL,1.7 µM,0.064 µM,0.25 µM
O=C1NC(=O)c2c1c(-c1ccccc1Cl)cc1c2c2cc(O)ccc2n1CCn1ccnc1,,,,0.092 µM,
